Measurements taken from patent US7365231B2, “Compound with antitumor activity and preparation method therefor” (National Taiwan University of Science & Technology, priority 2005, dated 2008).

Key:
Colo 205 cells [1] = test: Cell cycle analysis by flow cytometry; format: cell-based, human
Protocol: (§1) The cell cycle progression of Colo205, HT 29 and HCT-15 cells was examined using flow cytometry after exposure to 1, 2, 4 or 8 μM DPA for 72 hours. […] HT-29 cells were mainly in G0/G1 phase (84.1-86.0%), and only a few percent of cells in S phase (7.4-8.0%) after exposure to 4 μM DPA for 48-72 h. […] The G0/G1 arrest was not induced in the HCT-15 cells treated with 1-8 μM DPA for 24-72 h. […] DPA exerted the dose specific effect for the induced G0/G1 arrest on Colo 205 cells. […] In addition, we noted that DPA-mediated accumulation of Colo205 and HT 29 cells in G1 phase (>80%) was similar to that of DPD (Anti-Cancer Drug 2004; 15:277-80). It is likely that the induced G1-arrest without concomitant apoptosis on Colo 205 and HT 29 colon cancer cells is one unique property of structure I.

HCT-15 cells = test: Cell cycle analysis by flow cytometry; format: cell-based, human
Protocol: as §1

Colo 205 cells [2] = test: Reversibility of DPA-induced growth inhibition after drug withdrawal; format: cell-based, human
Protocol: To further investigate whether the DPA-induced growth inhibition was reversible, Colo 205 cells were treated with DPA for 72 hours, and the cells were withdrawn from DPA by culturing in fresh medium for another 48 or 72 hours. […] One possibility is that the relatively lipophilic nature of DPA or DPD reduced cellular efflux after the initial drug exposure. It is inferred that the irreversible property of adamantane and diamantane derivatives provides an advantage to prolong the anticancer activity.

[3] = Toxicity and body weight in nude mice, DPA once a week; format: in vivo; details: DPA 20-80 mg kg^−1, i.p.
Protocol: We further examined whether DPA is also effective in vivo after tumor formation. For compare the in vivo antitumor activity with DPD (DPA analogue), we followed the method of our previous study (Br. J Cancer 2003; 89: 1995-2003), and the similar doses were used. Cancer cells were transplanted into ICR nude mice, and when the tumors were palpable (2-4 mm), the mice were treated either with vehicle control or DPA (20-80 mg kg^−1, i.p., once a week). […] Its tumor size (48.6 mm^2) was about 3-fold larger than the average tumor size (16.7 mm^2) of the other DPA 80 mg kg^−1-treated mice at 7 days after the initial treatment. […] (ii) DPA presented the dose-specific effect for antitumor activity on human colon cancer xenografts. The dose-specific phenomenon was also found in vitro study of DPA-induced cell cycle arrest on Colo 205 cells as shown in Table 3.

[4] = test system: human colon cancer Colo 205 xenografts; test: In vivo antitumor effect of DPA and/or CPT-11, xenografts; parameters: species or system ICR nude mice; details: DPA 20 mg/kg i.p. twice a week; end of experiment
Protocol: To further investigate whether DPA could enhance the antitumoral activity of the chemotherapeutic agent CPT-11, Colo 205 cells were treated with DPA or DPA in combination with CPT-11. Cancer cells were transplanted into ICR nude mice, and when the tumors were palpable (30˜35 mm^3), the mice were treated either with vehicle control, CPT-11 or DPA (20 mg/kg, i.p., twice a week). Tumour volume(V) was calculated according to the following formula: V(mm^3)=0.4AB^2, where A and B are the longest diameter and the shortest diameter, respectively (Cancer Res. 1966; 26:1787-1800). […] The tumor size of DPA in combination with CPT-11-treated mice was a 73% decrease as compared with that of CPT-11-treated mice.

[5] = Toxicity, body weight and histology, DPA twice a week; format: in vivo, ICR nude mice
Colo 205 cells [6] = test: Cell cycle analysis by flow cytometry; format: cell-based, human; remark: listed apart in the source

With `Nc1ccc(Oc2ccc(C3(c4ccc(Oc5ccc(N)c(O)c5)cc4)C4CC5CC(C4)CC3C5)cc2)cc1O` [DPA, 2,2-bis(4-(4-amino-3-hydroxyphenoxy)phenyl)adamantane] the “accumulation of cells in G1 phase” value (Colo 205 cells [1]; Colo205) was > 80%, the “G2/M(%)” value (Colo 205 cells [1]; Colo 205, DPA 1 μM, 72 h) was 10.1% and the “S(%)” value (Colo 205 cells [1]; Colo 205, DPA 1 μM, 72 h) was 29.6%. The “cells in G2/M phase” value (HCT-15 cells; 8 μM DPA for 24-48 h) was 6.9-7.6%, the G0/G1 arrest (HCT-15 cells; 1-8 μM DPA for 24-72 h) was “not induced” and the “G0/G1(%)” value (HCT-15 cells; DPA 1 μM, 24 h) was 31.4%. For the same compound, the “G2/M(%)” value (HCT-15 cells; DPA 1 μM, 24 h) was 18.1%, the “S(%)” value (HCT-15 cells; DPA 1 μM, 24 h) was 50.6% and the “G0/G1(%)” value (HCT-15 cells; DPA 1 μM, 48 h) was 39.1%. For the same compound, the “G2/M(%)” value (HCT-15 cells; DPA 1 μM, 48 h) was 15.8%, the “S(%)” value (HCT-15 cells; DPA 1 μM, 48 h) was 45.1% and the “G0/G1(%)” value (HCT-15 cells; DPA 1 μM, 72 h) was 51.8%. The “G2/M(%)” value (HCT-15 cells; DPA 1 μM, 72 h) was 13.2%, the “S(%)” value (HCT-15 cells; DPA 1 μM, 72 h) was 35.0% and the “G0/G1(%)” value (HCT-15 cells; DPA 2 μM, 24 h) was 31.8%. For the same compound, the “G2/M(%)” value (HCT-15 cells; DPA 2 μM, 24 h) was 14.2%, the “S(%)” value (HCT-15 cells; DPA 2 μM, 24 h) was 54.0% and the “G0/G1(%)” value (HCT-15 cells; DPA 2 μM, 48 h) was 35.2%. For the same compound, the “G2/M(%)” value (HCT-15 cells; DPA 2 μM, 48 h) was 16.0%, the “S(%)” value (HCT-15 cells; DPA 2 μM, 48 h) was 48.8% and the “G0/G1(%)” value (HCT-15 cells; DPA 2 μM, 72 h) was 49.2%. The “G2/M(%)” value (HCT-15 cells; DPA 2 μM, 72 h) was 14.3%, the “S(%)” value (HCT-15 cells; DPA 2 μM, 72 h) was 36.6% and the “G0/G1(%)” value (HCT-15 cells; DPA 4 μM, 24 h) was 30.6%. For the same compound, the “G2/M(%)” value (HCT-15 cells; DPA 4 μM, 24 h) was 11.2%, the “S(%)” value (HCT-15 cells; DPA 4 μM, 24 h) was 58.2% and the “G0/G1(%)” value (HCT-15 cells; DPA 4 μM, 48 h) was 30.5%. The “G2/M(%)” value (HCT-15 cells; DPA 4 μM, 48 h) was 14.3%, the “S(%)” value (HCT-15 cells; DPA 4 μM, 48 h) was 55.3% and the “G0/G1(%)” value (HCT-15 cells; DPA 4 μM, 72 h) was 40.8%. The “G2/M(%)” value (HCT-15 cells; DPA 4 μM, 72 h) was 17.2%, the “S(%)” value (HCT-15 cells; DPA 4 μM, 72 h) was 42.1% and the “G0/G1(%)” value (HCT-15 cells; DPA 8 μM, 24 h) was 39.6%. The “G2/M(%)” value (HCT-15 cells; DPA 8 μM, 24 h) was 6.9%, the “S(%)” value (HCT-15 cells; DPA 8 μM, 24 h) was 53.5% and the “G0/G1(%)” value (HCT-15 cells; DPA 8 μM, 48 h) was 37.5%. The “G2/M(%)” value (HCT-15 cells; DPA 8 μM, 48 h) was 7.6%, the “S(%)” value (HCT-15 cells; DPA 8 μM, 48 h) was 54.9% and the “G0/G1(%)” value (HCT-15 cells; DPA 8 μM, 72 h) was 38.2%. The “G2/M(%)” value (HCT-15 cells; DPA 8 μM, 72 h) was 11.9%, the “S(%)” value (HCT-15 cells; DPA 8 μM, 72 h) was 49.9% and the “proliferation activity after removal of DPA” value (Colo 205 cells [2]; 1 μM DPA 72 h, then 48-72 hours in fresh medium) was “reversed and returned to control level”. For the same compound, the “reversal of growth inhibition after removal of DPA” value (Colo 205 cells [2]; 2, 4 or 8 μM DPA 72 h, then 48-72 hours in fresh medium) was “no reversal effect”, the cell viability (Colo 205 cells [2]; haemocytometer, treated cells except 8 μM DPA) was > 90% and the body weight [3] was “No significant reduction in body weight”. For the same compound, the “tumor size compared to control groups” value [4] was “significantly (P<0.05) decreased”, the acute toxicity ([5]; DPA 20~80 mg/kg, i.p., twice a week) was “no obviously acute toxicity” and the body weight ([5]; DPA-treated mice, twice a week) was “no significant reduction in body weight”. For the same compound, the “tissue damage in liver, lung and kidney” value ([5]; tissue slices stained with haematoxylin and eosin) was “no tissue damage was observed”, the “G0/G1 cell-cycle arrest and apoptosis” value (Colo 205 cells [6]; Colo205) was “G0/G1 cell-cycle arrest without concomitant apoptosis” and the “cells in G1 phase” value (Colo 205 cells [6]; Colo 205, 2 μM DPA for 48-72 h) was 84.1-87.1%. The “cells in G2/M phase” value (Colo 205 cells [6]; Colo 205, 2 μM DPA for 48-72 h) was 5.1-5.6%, the “cells in S phase” value (Colo 205 cells [6]; Colo 205, 2 μM DPA for 48-72 h) was 7.8-10.3% and the “G0/G1(%)” value (Colo 205 cells [6]; Colo 205, DPA 1 μM, 24 h) was 58.9%. For the same compound, the “G2/M(%)” value (Colo 205 cells [6]; Colo 205, DPA 1 μM, 24 h) was 12.0%, the “S(%)” value (Colo 205 cells [6]; Colo 205, DPA 1 μM, 24 h) was 29.0% and the “G0/G1(%)” value (Colo 205 cells [6]; Colo 205, DPA 1 μM, 48 h) was 53.3%. For the same compound, the “G2/M(%)” value (Colo 205 cells [6]; Colo 205, DPA 1 μM, 48 h) was 7.6%, the “S(%)” value (Colo 205 cells [6]; Colo 205, DPA 1 μM, 48 h) was 39.0% and the “G0/G1(%)” value (Colo 205 cells [6]; Colo 205, DPA 1 μM, 72 h) was 60.3%. The “G0/G1(%)” value (Colo 205 cells [6]; Colo 205, DPA 2 μM, 24 h) was 67.1%, the “G2/M(%)” value (Colo 205 cells [6]; Colo 205, DPA 2 μM, 24 h) was 48.3% and the “S(%)” value (Colo 205 cells [6]; Colo 205, DPA 2 μM, 24 h) was 24.1%. For the same compound, the “G0/G1(%)” value (Colo 205 cells [6]; Colo 205, DPA 2 μM, 48 h) was 84.1%, the “G2/M(%)” value (Colo 205 cells [6]; Colo 205, DPA 2 μM, 48 h) was 5.6% and the “S(%)” value (Colo 205 cells [6]; Colo 205, DPA 2 μM, 48 h) was 10.3%. For the same compound, the “G0/G1(%)” value (Colo 205 cells [6]; Colo 205, DPA 2 μM, 72 h) was 87.1%, the “G2/M(%)” value (Colo 205 cells [6]; Colo 205, DPA 2 μM, 72 h) was 5.1% and the “S(%)” value (Colo 205 cells [6]; Colo 205, DPA 2 μM, 72 h) was 7.8%. For the same compound, the “G0/G1(%)” value (Colo 205 cells [6]; Colo 205, DPA 4 μM, 24 h) was 67.5%, the “G2/M(%)” value (Colo 205 cells [6]; Colo 205, DPA 4 μM, 24 h) was 8.2% and the “S(%)” value (Colo 205 cells [6]; Colo 205, DPA 4 μM, 24 h) was 24.3%. The “G0/G1(%)” value (Colo 205 cells [6]; Colo 205, DPA 4 μM, 48 h) was 71.6%, the “G2/M(%)” value (Colo 205 cells [6]; Colo 205, DPA 4 μM, 48 h) was 10.4% and the “S(%)” value (Colo 205 cells [6]; Colo 205, DPA 4 μM, 48 h) was 18.1%. For the same compound, the “G0/G1(%)” value (Colo 205 cells [6]; Colo 205, DPA 4 μM, 72 h) was 76.3%, the “G2/M(%)” value (Colo 205 cells [6]; Colo 205, DPA 4 μM, 72 h) was 10.3% and the “S(%)” value (Colo 205 cells [6]; Colo 205, DPA 4 μM, 72 h) was 13.4%. The “G0/G1(%)” value (Colo 205 cells [6]; Colo 205, DPA 8 μM, 24 h) was 70.5%, the “G2/M(%)” value (Colo 205 cells [6]; Colo 205, DPA 8 μM, 24 h) was 5.2% and the “S(%)” value (Colo 205 cells [6]; Colo 205, DPA 8 μM, 24 h) was 24.3%. The “G0/G1(%)” value (Colo 205 cells [6]; Colo 205, DPA 8 μM, 48 h) was 70.6%, the “G2/M(%)” value (Colo 205 cells [6]; Colo 205, DPA 8 μM, 48 h) was 5.2% and the “S(%)” value (Colo 205 cells [6]; Colo 205, DPA 8 μM, 48 h) was 24.1%. For the same compound, the “G0/G1(%)” value (Colo 205 cells [6]; Colo 205, DPA 8 μM, 72 h) was 70.7%, the “G2/M(%)” value (Colo 205 cells [6]; Colo 205, DPA 8 μM, 72 h) was 3.4% and the “S(%)” value (Colo 205 cells [6]; Colo 205, DPA 8 μM, 72 h) was 25.8%.
